Consider ten compounds from patent US20250188123A1, “PROTEASE INHIBITORS” (Regents of the University of Minnesota, priority 2022, published 2025).

The target of one assay is T1, human caspase-2 (Homo sapiens, UniProt P42575).
T1 construct: inferred from pET23b, XhoI reverse primer without stop codon, Ni-NTA purification) (C); made in house; host or cells: E. coli BL21(DE3)
T1 sequence (P42575 170-452): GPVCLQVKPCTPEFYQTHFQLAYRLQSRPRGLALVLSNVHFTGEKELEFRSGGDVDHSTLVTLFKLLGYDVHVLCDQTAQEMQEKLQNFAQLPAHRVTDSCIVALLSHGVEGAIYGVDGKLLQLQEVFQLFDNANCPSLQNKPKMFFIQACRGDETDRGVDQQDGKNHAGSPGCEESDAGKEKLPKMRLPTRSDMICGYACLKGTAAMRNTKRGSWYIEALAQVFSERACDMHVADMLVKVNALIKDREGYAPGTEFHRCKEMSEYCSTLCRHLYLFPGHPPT
As to the kind of experiment: Fluorescent enzyme assay, Casp2 (AFC substrate Z-VDVAD-AFC). The format is biochemical. As to conditions: for Ki (Casp3) / Ki (Casp2): selectivity Casp2 over Casp3. The source says: (§1) Human recombinant Casp1, 6, 7, and 9 were purchased from BioVision (Milpitas/CA, USA). AFC fluorogenic substrates and control peptides (AcYVAD-CHO, AcVDVAD-CHO, AcDEVD-CHO, AcVEID-CHO, and AcLEHD-CHO) were purchased from Bachem (Torrance/CA, USA). The pET23b vector encoding human caspase-3 was a gift of Dr. Michelle Arkin at University of California, San Francisco. Expression and purification of Casp3 was guided by previously described protocols (Denault J-B, Salvesen G S., Current Protocols in Protein Science, 2002, 30(1), 21.13. 1-21.13. 15). Briefly, the plasmid was transformed into E. coli Rosetta 2 pLyss DE3 cells that were cultured at 1 L scale in shake flasks. Five hours post induction with IPTG, cells were harvested through centrifugation (4000 g for 10 minutes at 4° C.), lysed by sonication, and centrifuged again for 30 minutes at 20000 g. Supernatant was resuspended in buffer (100 mM Tris pH 8.0, 500 mM NaCl). Purification was achieved by nickel-affinity chromatography followed by ion-exchange chromatography. Protein was diluted to 0.5 mg/mL and stored at −80° C. in 100 mM Tris, pH 8.0 supplemented with 10% glycerol. The typical yield for the expression, isolation, and purification was approximately 3 mg/L. The DNA encoding human caspase-2 (hCASP2, amino acids 170-452, free of the N-terminal caspase activation and recruitment domain) open reading frame (ORF) was amplified via polymerase chain reaction (PCR) from full-length hCASP2 cDNA (Origene, Rockville, MD; Cat #SC321316) using following primers: forward, 5′-[…]-3′; reverse, 5′-[…]-3′. The PCR fragment was then cloned into the pET23b vector (Millipore Sigma, Burlington, MA), and DNA sequence was verified by classic Sanger sequencing analyses. Site-directed mutageneses were carried out using a QuikChange II XL site-directed mutagenesis kit (Agilent Technologies, Santa Clara, CA; Cat #200522) according to the manufacturer's instruction. Expression of recombinant hCASP2 was induced using 150 μM isopropyl-β-D-thiogalactopyranoside (IPTG) (Promega, Madison, WI) in the BL21(DE3) E. coli strain (Millipore Sigma) at 16° C. for 14 hours while shaking at 250 rpm. Cells were then harvested via centrifugation at 6,000 g, 4° C. for 15 minutes, followed by lysis via sonication. Proteins were initially purified using HisPur Ni-NTA resin (Thermo Fisher Scientific, Waltham, MA) followed by metal chelating chromatography (5 mL HiTrap Chelating HP columns (GE Healthcare Life Sciences, Piscataway, NJ)). Further purification was carried out using anion exchange chromatography (5 mL HiTrap Q HP columns (GE Healthcare Life Sciences)) for hCASP2. Proteins were stored in 1× phosphate-buffered saline (pH 7.4) at 10 mg/mL (concentration determined using a BCA assay (Thermo Fisher Scientific)), −80° C. until further use.
(§2) KM values were determined experimentally to be the following: Casp1: 5.9 μM; Casp2: 37.1 μM; Casp3: 7.6 μM; Casp6: 14.5 μM; Casp7: 13.8 μM; Casp9: 149.1 μM. Enzymes were diluted in buffer: 100 mM MES (pH 6.5) for Casp2 and or 100 mM HEPES (pH 7.0) for all other caspases, plus 150 mM NaCl, 0.1% CHAPS, 1.5% sucrose, 10 mM DTT. Enzyme concentrations were 0.05 U/well for Casp1, 6, and 7; 0.5 U/well for Casp9, 20 nM/well for Casp2, and 2 nM/well for Casp3. Enzyme in buffer (19 μL) was added per well in a black 384-well Corning 4514 assay plate. Test compounds were serially diluted in dimethyl sulfoxide (DMSO) and plated in duplicate into a Corning 3656 transfer plate. Test compound was added to assay plates in 0.5 μL aliquots per well and mixed 10 times using a BiomekFX (Beckman Coulter). Compound and enzyme mixture was incubated at 37° C. for 5 minutes for aldehyde warheads and 45 minutes for cyano warheads. […]

The next assay deals with T2, human caspase-3 (Homo sapiens, UniProt P42574).
T2 construct: made in house; host or cells: E. coli Rosetta 2 pLysS DE3
T2 sequence (P42574 29-277): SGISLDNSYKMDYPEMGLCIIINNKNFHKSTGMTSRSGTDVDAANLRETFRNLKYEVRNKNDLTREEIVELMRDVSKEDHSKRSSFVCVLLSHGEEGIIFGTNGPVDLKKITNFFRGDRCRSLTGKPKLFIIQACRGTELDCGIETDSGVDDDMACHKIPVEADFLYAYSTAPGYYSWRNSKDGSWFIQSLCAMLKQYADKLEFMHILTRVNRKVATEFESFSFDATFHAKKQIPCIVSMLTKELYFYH
Put plainly: Fluorescent enzyme assay, Casp3 (AFC substrate AcDEVD-AFC). The format is biochemical.
Excerpt: as §1, §2

[1] abbreviates: mean ± SEM of N independent experiments, each in duplicate or triplicate, read-out: pKi ± SEM Casp 2 (converted).
Setting [2] is: mean ± SEM of N independent experiments, each in duplicate or triplicate, read-out: pKi ± SEM Casp 3 (converted).

Structures are written as SMILES. Like-named read-outs stand apart in the source and are kept apart here. *1 amine or outer side, *2 acyl side, *3 side chain or, on linkers, in order; H or OH if unused. Where a SMILES comes first, the peptide text is derived from it. [ ]: non-standard residue; d: D form. The star is where a group is joined. ξ: configuration not given here. X1 = Cc1ccc2c(c1)CCN([*:1])[C@@H]2C(=O)[*:2]; ξ(indoline-2-carboxyl) = O=C(O)C1Cc2ccccc2N1; ξTHIQ1CO(6-Me) = Cc1ccc2c(c1)CCNC2C(=O)O; X3 = O=C([C@@H]1Cc2ccccc2N1[*:1])[*:2]; Aad = N[C@@H](CCCC(=O)O)C(=O)O; Thr(3ξ) = CC(O)[C@H](N)C(=O)O; Bn = c1ccc(C*)cc1 Some results are limits rather than exact numbers.

In the case of `Cc1ccc2c(c1)CCN(C(=O)[C@@H](NC(=O)[C@H](CCCC(=O)O)NC(=O)[C@@H]1Nc3ccc(F)cc3C1(C)C)C(C)C)[C@@H]2C(=O)N[C@H](C=O)CC(=O)O` [Compound 12, (S)-6-(((S)-1-((S)-1-(((S)-1-carboxy-3-oxopropan-2-yl)carbamoyl)-6-methyl-3,4-dihydroisoquinolin-2(1H)-yl)-3-methyl-1-oxobutan-2-yl)amino)-5-((R)-5-fluoro-3,3-dimethylindoline-2-carboxamido)-6-oxohexanoic acid hydrotrifluoroacetate], on human caspase-2, the Ki was 4.17 µM and the “Ki (Casp3) / Ki (Casp2)” value was 24. The Ki on human caspase-3 is > 100 µM.

For the compound `Cc1ccc2c(c1)CCN(C(=O)CCCCNC(=O)[C@@H]1Cc3ccccc3N1)[C@@H]2C(=O)N[C@H](C=O)CC(=O)O` [Compound 4, (S)-3-((S)-2-(5-((S)-indoline-2-carboxamido)pentanoyl)-6-methyl-1,2,3,4-tetrahydroisoquinoline-1-carboxamido)-4-oxobutanoic acid hydrotrifluoroacetate], the Ki on human caspase-2 (setting [1]) and on human caspase-3 (setting [2]) was > 100 µM throughout.

Regarding `Cc1ccc2c(c1F)CCN(C(=O)[C@@H](NC(=O)[C@H](CCCC(=O)O)NC(=O)[C@H]1Nc3ccc(F)cc3C1(C)C)C(C)C)C2C(=O)N[C@H](C=O)CC(=O)O` (stereo partly drawn) [Compound 15, (S)-6-(((S)-1-((S)-1-(((S)-1-carboxy-3-oxopropan-2-yl)carbamoyl)-5-fluoro-6-methyl-3,4-dihydroisoquinolin-2(1H)-yl)-3-methyl-1-oxobutan-2-yl)amino)-5-((S)-5-fluoro-3,3-dimethylindoline-2-carboxamido)-6-oxohexanoic acid hydrotrifluoroacetate], on human caspase-2, the Ki is 0.174 µM and the “Ki (Casp3) / Ki (Casp2)” value amounted to 575. Besides, the Ki at human caspase-3 was > 100 µM.

On to `Cc1ccc2c(c1)CCN(C(=O)[C@@H](NC(=O)[C@H](CCCC(=O)O)NC(=O)[C@H]1Nc3ccc(F)cc3C1(C)C)C(C)C)C2C(=O)N[C@H](C=O)CC(=O)O` (stereo partly drawn) [Compound 13, (S)-6-(((S)-1-((S)-1-(((S)-1-carboxy-3-oxopropan-2-yl)carbamoyl)-6-methyl-3,4-dihydroisoquinolin-2(1H)-yl)-3-methyl-1-oxobutan-2-yl)amino)-5-((S)-5-fluoro-3,3-dimethylindoline-2-carboxamido)-6-oxohexanoic acid hydrotrifluoroacetate], for which, at human caspase-2, the Ki was 0.646 µM and the “Ki (Casp3) / Ki (Casp2)” value stood at 155. Also, the Ki at human caspase-3 was > 100 µM.

With `Cc1ccc2c(c1)CCN(C(=O)[C@@H](NC(=O)[C@H](CCCC(=O)O)NC(=O)[C@@H]1Cc3ccccc3N1)C(C)OCc1ccccc1)C2C(=O)N[C@H](C=O)CC(=O)O` (stereo partly drawn) [Compound 6, (S)-6-(((2S,3S)-3-(benzyloxy)-1-((S)-1-(((S)-1-carboxy-3-oxopropan-2-yl)carbamoyl)-6-methyl-3,4-dihydroisoquinolin-2(1H)-yl)-1-oxobutan-2-yl)amino)-5-((S)-indoline-2-carboxamido)-6-oxohexanoic acid hydrotrifluoroacetate] (H-[X3][Aad][Thr(3ξ)](Bn)[ξTHIQ1CO(6-Me)]D-aldehyde), on human caspase-2, the Ki is 2.29 µM and the “Ki (Casp3) / Ki (Casp2)” value stood at 14. This compound also gave a Ki on human caspase-3 of 33.1 µM.

For the compound `CC(=O)N1c2ccccc2C[C@H]1C(=O)N[C@@H](CCCC(=O)O)C(=O)NCC(=O)N1CCc2cc(C)ccc2[C@H]1C(=O)N[C@H](C=O)CC(=O)O` [Compound 7, (S)-5-((S)-1-acetylindoline-2-carboxamido)-6-((2-((S)-1-(((S)-1-carboxy-3-oxopropan-2-yl)carbamoyl)-6-methyl-3,4-dihydroisoquinolin-2(1H)-yl)-2-oxoethyl)amino)-6-oxohexanoic acid], the values for the Ki on human caspase-2 (setting [1]) and at human caspase-3 (setting [2]) were 0.0295 µM and > 100 µM, respectively. In addition, on human caspase-2, the “Ki (Casp3) / Ki (Casp2)” value turned out to be 3388.

As for `Cc1ccc2c(c1)CCN(C(=O)CNC(=O)CNC(=O)[C@@H]1Cc3ccccc3N1)[C@@H]2C(=O)N[C@H](C=O)CC(=O)O` [Compound 3, (S)-3-((S)-2-(((S)-indoline-2-carbonyl)glycylglycyl)-6-methyl-1,2,3,4-tetrahydroisoquinolin-1-carboxamido)-4-oxobutanoic acid hydrotrifluoroacetate], the Ki on human caspase-2 (setting [1]) and at human caspase-3 (setting [2]) was > 100 µM in each case.

As for `Cc1ccc2c(c1)CCN(C(=O)[C@@H](NC(=O)[C@H](CCCC(=O)O)NC(=O)C1Cc3ccccc3N1)C(C)C)[C@@H]2C(=O)N[C@H](C=O)CC(=O)O` (stereo partly drawn) [Compound 2, (S)-6-(((S)-1-((S)-1-(((S)-1-carboxy-3-oxopropan-2-yl)carbamoyl)-6-methyl-3,4-dihydroisoquinolin-2(1H)-yl)-3-methyl-1-oxobutan-2-yl)amino)-5-((S)-indoline-2-carboxamido)-6-oxohexanoic acid hydrotrifluoroacetate] (H-[ξ(indoline-2-carboxyl)][Aad]V[X1]D-aldehyde), the values for the Ki on human caspase-2 and at human caspase-3 were 0.0398 µM and > 31.6 µM, respectively. In addition, on human caspase-2, the “Ki (Casp3) / Ki (Casp2)” value is on record as 794.

`CC(=O)N1c2ccccc2C[C@H]1C(=O)N[C@@H](CCCC(=O)O)C(=O)N[C@H](C(=O)N1CCc2cc(C)ccc2[C@H]1C(=O)N[C@H](C=O)CC(=O)O)C(C)(C)C` [Compound 10, (S)-5-((S)-1-acetylindoline-2-carboxamido)-6-(((S)-1-((S)-1-(((S)-1-carboxy-3-oxopropan-2-yl)carbamoyl)-6-methyl-3,4-dihydroisoquinolin-2(1H)-yl)-3,3-dimethyl-1-oxobutan-2-yl)amino)-6-oxohexanoic acid]: the values for the Ki on human caspase-2 (setting [1]) and on human caspase-3 (setting [2]) were 2.14 µM and > 100 µM, respectively. Also, the “Ki (Casp3) / Ki (Casp2)” value on human caspase-2 was determined as 47.

Turning to `CC(=O)N1c2ccccc2C[C@H]1C(=O)N[C@@H](CCCC(=O)O)C(=O)N[C@H](C(=O)N1CCc2cc(C)ccc2[C@H]1C(=O)N[C@H](C=O)CC(=O)O)C(C)C` [Compound 9, (S)-5-((S)-1-acetylindoline-2-carboxamido)-6-(((S)-1-((S)-1-(((S)-1-carboxy-3-oxopropan-2-yl)carbamoyl)-6-methyl-3,4-dihydroisoquinolin-2(1H)-yl)-3-methyl-1-oxobutan-2-yl)amino)-6-oxohexanoic acid], the Ki at human caspase-2 (setting [1]) was 0.38 µM; at human caspase-3 (setting [2]), > 100 µM. The “Ki (Casp3) / Ki (Casp2)” value on human caspase-2 is on record as 263.
